Test results published in US20230310445A1, “LOX ENZYME INHIBITING METHODS AND COMPOSITIONS” (ANOVIA BIOSCIENCES, INC., priority 2020, published 2023).
Like-named read-outs stand apart in the source and are kept apart here.

Assay: PK study following IV and PO administration in male CD1 mice
Assay type: in vivo, mouse
Parameters: AUClast/D: unit: (ng*h/mL)/(mg/kg)
Settings: for AUClast/D / CIobs / AUC(0-inf) / AUC(0-t) / C0 / half-life / MRT inf / Vd / Cmax / Tmax: plasma, mean of three mice; for CIobs: unit assumed; for F: PO 50 mg/kg versus IV 10 mg/kg; for AUC(0-inf) / AUC(0-t) / C0 / half-life / MRT inf / Vd / Cmax / Tmax: mouse; for MRT inf: read-out: MRTInf—obs; for Vd: read-out: Vss—obs
Experimental: The objective of this study was to determine the pharmacokinetic (PK) profile of LOX enzyme inhibiting compounds following IV and PO administrations in male CD1 mice.
Male CDT mice from a qualified provider were used for all studies. Mice were 6-8 weeks old at the time of the experiment (˜20-30 g body weight). All animals for IV & PO administration were fasted overnight and fed after 4 hours collection. The dose formulation was kept at room temperature no more than 2 hours.
Dose formulations were prepared fresh on the day of dosing and stored at ambient temperature. Dose formulations were as following: […]
Blood samples were collected from the dorsal metatarsal vein. Circa 0.03 mL were collected per time point and 0.3 mL at final time point via heart puncture. The blood samples were centrifuged at 4000 g for 5 minutes at 4° C. to obtain plasma and samples were immediately frozen in the upright position and stored at −75±15° C. prior to analysis.
Blood samples were collected at time points outlined in Table 12:
Acceptable time ranges for blood collection were as following: 5 min and 15 min: within +0.25 minute, 30 min, 1 hour, and 2 hours: within +2 minutes; 4 hours, 6 hours, 8 hours, and 24 hours: within +10 minutes.
Concentrations of LOX enzyme inhibiting compounds in the plasma were analyzed using a LC-MS/MS method. WinNonlin (Phoenix™, version 8.2) software was used for pharmacokinetic calculations. The following pharmacokinetic parameters were calculated, whenever possible from the plasma concentration versus time data:
IV administration: T1/2, C0, AUClast, AUCinf, MRTinf, Cl, Vss, Number of Points for Regression.
PO administration: T1/2, Cmax, Tmax, AUClast, AUCinf and F. Number of Points for Regression.
The pharmacokinetic data were described using descriptive statistics such as mean, standard deviation.
Results are outlined in Table 13 (IV), Table 14 (PO) and FIGS. 1-3. Data represent mean values from three mice.

SMILES	AUClast/D (IV, 10 mg/kg)	CIobs (IV, 10 mg/kg) [L/h/kg]	F	AUClast/D (PO, 50 mg/kg)	AUC(0-inf) (IV, 10 mg/kg) [µg·h/mL]	AUC(0-t) (IV, 10 mg/kg) [µg·h/mL]	C0 (IV, 10 mg/kg) [µg/mL]	half-life (IV, 10 mg/kg) [min]	MRT inf (IV, 10 mg/kg) [min]	Vd (IV, 10 mg/kg) [L/kg]	AUC(0-inf) (PO, 50 mg/kg) [µg·h/mL]	AUC(0-t) (PO, 50 mg/kg) [µg·h/mL]	Cmax (PO, 50 mg/kg) [µg/mL]	Tmax (PO, 50 mg/kg) [min]	half-life (PO, 50 mg/kg) [min]	MRT inf (PO, 50 mg/kg) [min]
NCc1ccnc(S(=O)(=O)N2C[C@@H](C(=O)N3CCS(=O)(=O)CC3)C[C@@H](C3CCCCC3)C2)c1.O=C(O)C(F)(F)F (racemic) [Example 146, cis-(1-((4-(Aminomethyl)pyridin-2-yl)sulfonyl)-5-cyclohexylpiperidin-3-yl)(1,1-dioxidothiomorpholino)methanone 2,2,2-trifluoroacetate]	164	6.18	7.2	11.3	1.65	1.64	6.15	287	51	5.12	0.59	0.563	0.503	15	337	221
CN(C)C(=O)N1C[C@@H](c2ccccc2)C[C@@H](S(=O)(=O)c2cccc(CN)c2)C1.O=C(O)C(F)(F)F (racemic) [Example 74, cis-3-((3-(Aminomethyl)phenyl)sulfonyl)-N,N-dimethyl-5-phenylpiperidine-1-carboxamide 2,2,2-trifluoroacetate]	196	5.13	90	138	1.97	1.96	3.59	53.4	41.5	3.55	8.86	8.85	5.55	25	49.3	74.4
